In ChEMBL document CHEMBL3779793, “Squaraines bearing halogenated moieties as anticancer photosensitizers: Synthesis, characterization and biological evaluation” (Eur J Med Chem, 2016):
Activity calls are given as the source filed them. No cut-off for these calls is given here.

Tests used:
HT-1080 [1] = experiment: Photocytotoxicity against human HT1080 cells at 1 uM preincubated for 24 hrs followed by red LED irradiation for 20 mins measured after 72 hrs by WST-1 assay; assay type: functional, cell-based
[2] = Drug uptake in human HT1080 cells at 1 uM upto 6 hrs by flow cytometric analysis; assay type: ADME, cell-based; details: ht-1080, 6 h
[3] = Dark cytotoxicity against human HT1080 cells at 2 to 10 uM after 24 to 72 hrs by WST-1 assay; assay type: cell-based; details: ht-1080, 10 µM
[4] = Induction of singlet oxygen generation in PBS at 5 uM measured within 5 to 10 mins by DPBF-based singlet oxygen trapping method in presence of light; assay type: physicochemical; details: buffer
[5] = Dark cytotoxicity against human HT1080 cells at 0.25 to 1 uM after 24 to 72 hrs by WST-1 assay; assay type: cell-based; details: ht-1080, 1 µM
[6] = Drug uptake in human HT1080 cells at 1 uM by flow cytometric analysis; assay type: ADME, cell-based; details: ht-1080, 1 µM, TDE = time-dependent effect
HT-1080 [7] = experiment: Photocytotoxicity against human HT1080 cells at 1 uM preincubated for 24 hrs followed by red LED irradiation for 20 mins measured after 24 to 72 hrs by WST-1 assay; assay type: functional, cell-based
[8] = Induction of necrosis in human HT1080 cells at 1 uM preincubated for 24 hrs measured after 6 hrs by Annexin V Alexa Fluor and PI staining based flow cytometry; assay type: cell-based; details: ht-1080, 6 h
[9] = Upregulation of BAX mRNA expression in human HT1080 cells at 1 uM preincubated for 24 hrs followed by red LED irradiation for 20 mins measured after 0.5 to 24 hrs by RT-PCR analysis; assay type: functional, cell-based; details: HT-1080
HT-1080 [10] = experiment: Increase in release of mitochondrial cytochrome c release in cytosolic extracts of human HT1080 cells at 1 uM preincubated for 24 hrs followed by red LED irradiation for 20 mins measured after 3 hrs by ELISA method; assay type: functional, cell-based
[11] = Upregulation of NQO1 mRNA expression in human HT1080 cells at 1 uM preincubated for 24 hrs followed by red LED irradiation for 20 mins measured upto 24 hrs by RT-PCR analysis; assay type: functional, cell-based; details: HT-1080
HT-1080 [12] = experiment: Increase in release of mitochondrial cytochrome c release in cytosolic extracts of human HT1080 cells at 1 uM preincubated for 24 hrs followed by red LED irradiation for 20 mins measured after 0.5 hrs by ELISA method; assay type: functional, cell-based
[13] = Upregulation of SOD2 mRNA expression in human HT1080 cells at 1 uM preincubated for 24 hrs followed by red LED irradiation for 20 mins measured after 0.5 hrs by RT-PCR analysis relative to control; assay type: functional, cell-based; details: HT-1080
HT-1080 [14] = experiment: Induction of reactive oxygen species generation in human HT1080 cells at 1 uM preincubated for 24 hrs followed by red LED irradiation for 20 mins measured upto 15 mins by DCFH-DA probe based flow cytometry; assay type: functional, cell-based
[15] = Drug uptake in mitochondria of human HT1080 cells at 1 uM incubated for 24 hrs by MitoTracker green dye based laser scanning confocal microscopy; assay type: ADME; details: ht-1080, 24 h
HT-1080 [16] = experiment: Induction of reactive oxygen species generation in human HT1080 cells assessed as increase in integrated median fluorescence intensity at 1 uM preincubated for 24 hrs followed by red LED irradiation for 20 mins measured after 1 min by DCFH-DA probe based flow cytometry relative to control; assay type: functional
[17] = Upregulation of NQO1 mRNA expression in human HT1080 cells at 1 uM preincubated for 24 hrs followed by red LED irradiation for 20 mins measured after 0.5 hrs by RT-PCR analysis relative to control; assay type: functional, cell-based; details: HT-1080
HT-1080 [18] = experiment: Induction of necrosis in human HT1080 cells at 1 uM preincubated for 24 hrs followed by red LED irradiation for 20 mins measured after 6 hrs by Annexin V Alexa Fluor and PI staining based flow cytometry; assay type: functional
[19] = Induction of apoptosis in human HT1080 cells at 1 uM preincubated for 24 hrs measured after 6 hrs by Annexin V Alexa Fluor and PI staining based flow cytometry; assay type: cell-based; details: ht-1080, 6 h
[20] = Upregulation of GPX1 mRNA expression in human HT1080 cells at 1 uM preincubated for 24 hrs followed by red LED irradiation for 20 mins measured after 0.5 hrs by RT-PCR analysis relative to control; assay type: functional, cell-based; details: HT-1080
[21] = Upregulation of TP-53 mRNA expression in human HT1080 cells at 1 uM preincubated for 24 hrs followed by red LED irradiation for 20 mins measured after 3 hrs by RT-PCR analysis; assay type: functional, cell-based; details: HT-1080
[22] = Upregulation of APAF1 mRNA expression in human HT1080 cells at 1 uM preincubated for 24 hrs followed by red LED irradiation for 20 mins measured after 0.5 to 24 hrs by RT-PCR analysis; assay type: functional, cell-based; details: HT-1080
[23] = Downregulation of BCL-2 mRNA expression in human HT1080 cells at 1 uM preincubated for 24 hrs followed by red LED irradiation for 20 mins measured after 0.5 to 24 hrs by RT-PCR analysis; assay type: functional, cell-based; details: HT-1080
[24] = Dark cytotoxicity against human HT1080 cells at 2 uM after 24 to 72 hrs by WST-1 assay; assay type: cell-based; details: ht-1080, 2 µM
HT-1080 [25] = experiment: Induction of DNA damage in human HT1080 cells at 1 uM preincubated for 24 hrs followed by red LED irradiation for 20 mins measured after 30 mins by ARP probe based flow cytometry; assay type: functional, cell-based
[26] = Upregulation of GPX1 mRNA expression in human HT1080 cells at 1 uM preincubated for 24 hrs followed by red LED irradiation for 20 mins measured after 3 to 24 hrs by RT-PCR analysis; assay type: functional, cell-based; details: HT-1080
HT-1080 [27] = experiment: Photocytotoxicity against human HT1080 cells at 1 uM preincubated for 24 hrs followed by red LED irradiation for 20 mins measured after 48 to 72 hrs by WST-1 assay; assay type: functional, cell-based
[28] = Drug uptake in human HT1080 cells at 1 uM upto 24 hrs by flow cytometric analysis; assay type: ADME, cell-based; details: ht-1080, 24 h
[29] = Induction of singlet oxygen generation in PBS at 5 uM measured within 60 mins by DPBF-based singlet oxygen trapping method in presence of light; assay type: physicochemical; details: buffer, 1 h

Structure (SMILES): CC1(C)C(/C=C2/C(=O)C(/C=C3\Nc4ccc(I)cc4C3(C)C)=C2O)=Nc2ccc(I)cc21
- Activity (HT-1080 [1]): Active
- Drug uptake [2]: Active
- Activity [3]: Dose-dependent effect
- Activity [4]: Active
- Activity [5]: Non-toxic

Structure (SMILES): CCN1/C(=C/C2=C([O-])C(=C\C3=[N+](CC)c4ccc(I)cc4C3(C)C)/C2=O)C(C)(C)c2cc(I)ccc21
- Drug uptake [6]: tde
- Activity (HT-1080 [7]): inactive
- Activity [3]: Dose-dependent effect
- Activity [4]: Active
- Activity [5]: Non-toxic

Structure (SMILES): CCCCN1/C(=C/C2=C([O-])C(=C\C3=[N+](CCCC)c4ccc(I)cc4C3(C)C)/C2=O)C(C)(C)c2cc(I)ccc21
- Activity [8]: Non-toxic
- Activity [9]: inactive
- Activity (HT-1080 [10]): inactive
- Activity [11]: inactive
- Drug uptake [6]: tde
- Activity (HT-1080 [12]): Active
- fold change (FC) [13]: 5.21
- Activity (HT-1080 [7]): Active
- Activity (HT-1080 [14]): inactive
- Activity [3]: Dose-dependent effect
- Drug uptake [15]: Active
- fold change (FC) (HT-1080 [16]): 32
- fold change (FC) [17]: 5.56
- Activity (HT-1080 [18]): 83%
- Activity [19]: Non-toxic
- fold change (FC) [20]: 54.6
- Activity [21]: inactive
- Activity [22]: inactive
- Activity [23]: Active
- Activity [4]: Active
- Activity [5]: Non-toxic
- Activity [24]: Non-toxic
- Activity (HT-1080 [25]): Active
- Activity [26]: inactive

Structure (SMILES): CCN1/C(=C/C2=C([O-])C(=C\C3=[N+](CC)c4ccc(Br)cc4C3(C)C)/C2=O)C(C)(C)c2cc(Br)ccc21
- Drug uptake [6]: tde
- Activity (HT-1080 [27]): Active
- Activity [3]: Dose-dependent effect
- Activity [4]: Active
- Activity [5]: Non-toxic
- Activity [24]: Non-toxic

Structure (SMILES): CC1(C)C(/C=C2/C(=O)C(/C=C3\Nc4ccc(Br)cc4C3(C)C)=C2O)=Nc2ccc(Br)cc21
- Drug uptake [2]: Active
- Activity (HT-1080 [7]): inactive
- Activity [3]: Dose-dependent effect
- Activity [4]: Active
- Activity [5]: Non-toxic

Structure (SMILES): CCCCN1/C(=C/C2=C([O-])C(=C\C3=[N+](CCCC)c4ccc(Br)cc4C3(C)C)/C2=O)C(C)(C)c2cc(Br)ccc21
- Activity [8]: Non-toxic
- Activity [9]: inactive
- Activity (HT-1080 [10]): inactive
- Activity [11]: inactive
- Drug uptake [6]: tde
- Activity (HT-1080 [12]): Active
- Activity [13]: inactive
- Activity (HT-1080 [7]): Active
- Activity (HT-1080 [14]): inactive
- Activity [3]: Dose-dependent effect
- Drug uptake [15]: Active
- fold change (FC) (HT-1080 [16]): 15.32
- fold change (FC) [17]: 3.39
- Activity (HT-1080 [18]): 81.9%
- Activity [19]: Non-toxic
- fold change (FC) [20]: 34.6
- Activity [21]: Active
- Activity [22]: inactive
- Activity [23]: Active
- Activity [4]: Active
- Activity [5]: Non-toxic
- Activity [24]: Non-toxic
- Activity (HT-1080 [25]): Active
- Activity [26]: inactive

Structure (SMILES): CC1(C)C(/C=C2/C(=O)C(/C=C3\Nc4ccccc4C3(C)C)=C2O)=Nc2ccccc21
- Drug uptake [28]: Active
- Activity (HT-1080 [7]): inactive
- Activity [3]: Dose-dependent effect
- Activity [5]: Non-toxic
- Activity [29]: Active
